We go through four substances from patent US20220289794A1, “SYNTHETIC ANTIMICROBIAL PEPTIDES” (priority 2019, published 2022).

In one experiment the test system is Klebsiella pneumoniae ATCC 13883.
Assay: not given
The note with it: Table 16, Gram-negative panel.
“c[arg-arg-arg-arg-Dip-Trp-Dip] [IFX-099]” displayed an MIC K. pneumonia (ATCC 13883) of 50 µg/mL.
The same measure, in the same setting: as for “c[arg-arg-arg-arg-NaI-trp-NaI] [IFX-141]”, the figure is 50 µg/mL.
On the same count and under the same terms, for “c[arg-arg-arg-arg-dip-Trp-dip] [IFX-095]” the value was 50 µg/mL.
Same read-out and setting: for “c[arg-arg-arg-arg-dip-dip-dip] [IFX-067]” the value was above 50 µg/mL.

Another experiment relates to Enterococcus faecalis ATCC 29212.
Assay: not given
The settings on record: E. faecalis ATCC 29212.
Take “c[arg-arg-arg-arg-Dip-Trp-Dip] [IFX-099]”: the “Broad-spectrum activity E. faecalis (ATCC 29212)” value amounted to 6.2.
The same measure, in the same setting: as for “c[arg-arg-arg-arg-NaI-trp-NaI] [IFX-141]”, the figure is 6.2; as for “c[arg-arg-arg-arg-dip-Trp-dip] [IFX-095]”, 6.2; as for “c[arg-arg-arg-arg-dip-dip-dip] [IFX-067]”, 6.2.

A further experiment deals with Enterococcus faecium ATCC 27270.
Assay: not given
The note with it: E. faecium ATCC 27270.
With “c[arg-arg-arg-arg-Dip-Trp-Dip] [IFX-099]”, the “Broad-spectrum activity E. faecium (ATCC 27270)” value came out at 3.1.
The same measure, in the same setting: as for “c[arg-arg-arg-arg-NaI-trp-NaI] [IFX-141]”, the figure is 6.2; as for “c[arg-arg-arg-arg-dip-Trp-dip] [IFX-095]”, 3.1; as for “c[arg-arg-arg-arg-dip-dip-dip] [IFX-067]”, 3.1.

The test system of the next experiment is Methicillin-resistant Staphylococcus aureus MRSA (ATCC BAA-1556).
Assay: not given
The note with it: MRSA ATCC BAA-1556.
Consider “c[arg-arg-arg-arg-Dip-Trp-Dip] [IFX-099]”, for which the “MIC MRSA ATCC BAA-1556” value amounted to 1.5 µg/mL.
In the case of “c[arg-arg-arg-arg-NaI-trp-NaI] [IFX-141]”, the “MIC MRSA ATCC BAA-1556” value was determined as 6.2 µg/mL.
On to “c[arg-arg-arg-arg-dip-Trp-dip] [IFX-095]”, for which the “MIC MRSA ATCC BAA-1556” value came out at 3.1 µg/mL.
On the same count and under the same terms, for “c[arg-arg-arg-arg-dip-dip-dip] [IFX-067]” the value was 1.5 µg/mL.

A further experiment relates to B. cereus (ATCC-13061). Put plainly: Broad-spectrum activity against Gram-Positive bacteria (MIC). Further details: unit not given here. Format: cell-based.
Settings: not given
For the substance “c[arg-arg-arg-arg-Dip-Trp-Dip] [IFX-099]”, the “Broad-spectrum activity B. cereus (ATCC-13061)” value is given as 3.1.
The same measure, in the same setting: for “c[arg-arg-arg-arg-NaI-trp-NaI] [IFX-141]” the value was 3.1; for “c[arg-arg-arg-arg-dip-Trp-dip] [IFX-095]”, 3.1; for “c[arg-arg-arg-arg-dip-dip-dip] [IFX-067]”, 3.1.

In a further experiment the test system is E. coli (ATCC BAA-2452). Put plainly: Broad-spectrum activity against Gram-Negative bacteria (MIC). Type of experiment: cell-based. The note with it: Table 16, Gram-negative panel.
For the substance “c[arg-arg-arg-arg-Dip-Trp-Dip] [IFX-099]”, the MIC E. coli (ATCC BAA-2452) stood at 25 µg/mL.
Still for that read-out and setting: as for “c[arg-arg-arg-arg-NaI-trp-NaI] [IFX-141]”, the figure is 25 µg/mL; as for “c[arg-arg-arg-arg-dip-Trp-dip] [IFX-095]”, 25 µg/mL.
On the same count and under the same terms, as for “c[arg-arg-arg-arg-dip-dip-dip] [IFX-067]”, the figure is 12.5 µg/mL.

The next experiment concerns Enterococcus faecalis ATCC 51575.
Assay: not given
The note with it: E. faecalis ATCC 51575.
Consider “c[arg-arg-arg-arg-Dip-Trp-Dip] [IFX-099]”, for which the “Broad-spectrum activity E. faecalis (ATCC 51575)” value is 12.5.
On the same count and under the same terms, for “c[arg-arg-arg-arg-NaI-trp-NaI] [IFX-141]” the value was 12.5; for “c[arg-arg-arg-arg-dip-Trp-dip] [IFX-095]”, 12.5; for “c[arg-arg-arg-arg-dip-dip-dip] [IFX-067]”, 6.2.

Another experiment deals with Streptococcus pneumoniae ATCC 51938.
Assay: not given
The note with it: S. pneumoniae ATCC 51938.
As for “c[arg-arg-arg-arg-Dip-Trp-Dip] [IFX-099]”, the “Broad-spectrum activity S. pneumoniae (ATCC 51938)” value stood at 12.5.
For the substance “c[arg-arg-arg-arg-NaI-trp-NaI] [IFX-141]”, the “Broad-spectrum activity S. pneumoniae (ATCC 51938)” value was determined as 12.5.
On the same count and under the same terms, for “c[arg-arg-arg-arg-dip-Trp-dip] [IFX-095]” the value was 12.5.
As to “c[arg-arg-arg-arg-dip-dip-dip] [IFX-067]”, the “Broad-spectrum activity S. pneumoniae (ATCC 51938)” value was determined as 12.5.

The subject of a further experiment is Enterococcus faecium ATCC 700221.
Assay: not given
The settings on record: E. faecium ATCC 700221.
Take “c[arg-arg-arg-arg-Dip-Trp-Dip] [IFX-099]”: the “Broad-spectrum activity E. faecium (ATCC 700221)” value is recorded as 6.2.
On the same count and under the same terms, as for “c[arg-arg-arg-arg-NaI-trp-NaI] [IFX-141]”, the figure is 6.2; as for “c[arg-arg-arg-arg-dip-Trp-dip] [IFX-095]”, 6.2.
Still for that read-out and setting: as for “c[arg-arg-arg-arg-dip-dip-dip] [IFX-067]”, the figure is 3.1.

A further experiment concerns Pseudomonas aeruginosa (ATCC 27883).
Assay: not given
The note with it: P. aeruginosa ATCC 27883.
Turning to “c[arg-arg-arg-arg-Dip-Trp-Dip] [IFX-099]”, the “MIC P. aeruginosa ATCC 27883” value is 12.5 µg/mL.
“c[arg-arg-arg-arg-NaI-trp-NaI] [IFX-141]”: the “MIC P. aeruginosa ATCC 27883” value was determined as 32 µg/mL.
Consider “c[arg-arg-arg-arg-dip-Trp-dip] [IFX-095]”, for which the “MIC P. aeruginosa ATCC 27883” value stood at 12.5 µg/mL.
On the same count and under the same terms, as for “c[arg-arg-arg-arg-dip-dip-dip] [IFX-067]”, the figure is 12.5 µg/mL.

The next experiment relates to B. subtilis (ATCC-6633). In words: Broad-spectrum activity against Gram-Positive bacteria (MIC).
Settings: not given
Type of experiment: cell-based. Also noted: unit not given here.
Take “c[arg-arg-arg-arg-Dip-Trp-Dip] [IFX-099]”: the “Broad-spectrum activity B. subtilis (ATCC-6633)” value is 1.5.
On the same count and under the same terms, for “c[arg-arg-arg-arg-NaI-trp-NaI] [IFX-141]” the value was 1.5; for “c[arg-arg-arg-arg-dip-Trp-dip] [IFX-095]”, 1.5.
On the same count and under the same terms, for “c[arg-arg-arg-arg-dip-dip-dip] [IFX-067]” the value was 1.5.

The next experiment has as its system Escherichia coli (ATCC 25922).
Assay: not given
The note with it: E. coli ATCC 25922.
Regarding “c[arg-arg-arg-arg-Dip-Trp-Dip] [IFX-099]”, the “MIC E. coli ATCC 25922” value was determined as 6.2 µg/mL.
The same measure, in the same setting: for “c[arg-arg-arg-arg-NaI-trp-NaI] [IFX-141]” the value was 32 µg/mL; for “c[arg-arg-arg-arg-dip-Trp-dip] [IFX-095]”, 12.5 µg/mL.
The same measure, in the same setting: as for “c[arg-arg-arg-arg-dip-dip-dip] [IFX-067]”, the figure is 6.2 µg/mL.

For the next experiment, the system named is S. aureus ATCC 29213.
Assay: not given
The settings on record: S. aureus ATCC 29213.
Regarding “c[arg-arg-arg-arg-Dip-Trp-Dip] [IFX-099]”, the “MIC S. aureus ATCC 29213” value is 1.5 µg/mL.
Still for that read-out and setting: for “c[arg-arg-arg-arg-NaI-trp-NaI] [IFX-141]” the value was 3.1 µg/mL.
Take “c[arg-arg-arg-arg-dip-Trp-dip] [IFX-095]”: the “MIC S. aureus ATCC 29213” value was 3.1 µg/mL.
Still for that read-out and setting: for “c[arg-arg-arg-arg-dip-dip-dip] [IFX-067]” the value was 3.1 µg/mL.

The test system of the next experiment is Klebsiella pneumoniae (ATCC BAA-1705).
Assay: not given
The note with it: Table 16, Gram-negative panel.
As to “c[arg-arg-arg-arg-Dip-Trp-Dip] [IFX-099]”, the MIC K. pneumonia (ATCC BAA-1705) came to 25 µg/mL.
Still for that read-out and setting: for “c[arg-arg-arg-arg-NaI-trp-NaI] [IFX-141]” the value was above 50 µg/mL; for “c[arg-arg-arg-arg-dip-Trp-dip] [IFX-095]”, 12.5 µg/mL; for “c[arg-arg-arg-arg-dip-dip-dip] [IFX-067]”, 25 µg/mL.

The next experiment concerns P. aeruginosa (ATCC 10145). Put plainly: Broad-spectrum activity against Gram-Negative bacteria (MIC). Format: cell-based. The note with it: Table 16, Gram-negative panel.
In turn, “c[arg-arg-arg-arg-Dip-Trp-Dip] [IFX-099]” came in with an MIC P. aeruginosa (ATCC 10145) of 25 µg/mL.
With “c[arg-arg-arg-arg-NaI-trp-NaI] [IFX-141]”, the MIC P. aeruginosa (ATCC 10145) was 25 µg/mL.
Still for that read-out and setting: for “c[arg-arg-arg-arg-dip-Trp-dip] [IFX-095]” the value was 25 µg/mL; for “c[arg-arg-arg-arg-dip-dip-dip] [IFX-067]”, 50 µg/mL.

The test system of a further experiment is Streptococcus pneumoniae ATCC 49619.
Assay: not given
The note with it: S. pneumoniae ATCC 49619.
For “c[arg-arg-arg-arg-Dip-Trp-Dip] [IFX-099]”, the “Broad-spectrum activity S. pneumoniae (ATCC 49619)” value was found to be 25.
In the case of “c[arg-arg-arg-arg-NaI-trp-NaI] [IFX-141]”, the “Broad-spectrum activity S. pneumoniae (ATCC 49619)” value is on record as 50.
“c[arg-arg-arg-arg-dip-Trp-dip] [IFX-095]”: the “Broad-spectrum activity S. pneumoniae (ATCC 49619)” value worked out at 50.
Turning to “c[arg-arg-arg-arg-dip-dip-dip] [IFX-067]”, the “Broad-spectrum activity S. pneumoniae (ATCC 49619)” value worked out at 25.

The test system of the next experiment is P. aeruginosa (ATCC BAA-1744). Put plainly: Broad-spectrum activity against Gram-Negative bacteria (MIC). The settings on record: Table 16, Gram-negative panel. Format: cell-based.
The substance “c[arg-arg-arg-arg-Dip-Trp-Dip] [IFX-099]” had an MIC P. aeruginosa (ATCC BAA-1744) of 25 µg/mL.
On the same count and under the same terms, as for “c[arg-arg-arg-arg-NaI-trp-NaI] [IFX-141]”, the figure is 25 µg/mL; as for “c[arg-arg-arg-arg-dip-Trp-dip] [IFX-095]”, 25 µg/mL.
“c[arg-arg-arg-arg-dip-dip-dip] [IFX-067]” returned an MIC P. aeruginosa (ATCC BAA-1744) of 25 µg/mL.

A further experiment has as its system A. baumannii (ATCC BAA-1605). The description is as above. Format: cell-based. The note with it: Table 16, Gram-negative panel.
For the substance “c[arg-arg-arg-arg-Dip-Trp-Dip] [IFX-099]”, the MIC A. baumannii (ATCC BAA-1605) amounted to 12.5 µg/mL.
Same read-out and setting: for “c[arg-arg-arg-arg-NaI-trp-NaI] [IFX-141]” the value was 12.5 µg/mL.
Still for that read-out and setting: as for “c[arg-arg-arg-arg-dip-Trp-dip] [IFX-095]”, the figure is 12.5 µg/mL; as for “c[arg-arg-arg-arg-dip-dip-dip] [IFX-067]”, 12.5 µg/mL.
